Reference: US20200345725A1, “Methods and Compositions for Treating Cancer” (Omeros Corporation, priority 2019, published 2020)
Values joined by “and” are separate entries in the source; they are usually repeats but may differ in a detail not shown here. Equal entries are not always repeated.

Target: GPR174 (Homo sapiens, UniProt Q9BXC1)
Experiment: CRE-Luc reporter Gs signaling assay with GPR174
Format: cell-based
Parameters: host or cells: HEK293 or CHO cell lines (ATCC)
Settings: pCRE-Luc reporter; for EC50: multiple values = separate experiments

Sequence of GPR174 (Q9BXC1 whole entry): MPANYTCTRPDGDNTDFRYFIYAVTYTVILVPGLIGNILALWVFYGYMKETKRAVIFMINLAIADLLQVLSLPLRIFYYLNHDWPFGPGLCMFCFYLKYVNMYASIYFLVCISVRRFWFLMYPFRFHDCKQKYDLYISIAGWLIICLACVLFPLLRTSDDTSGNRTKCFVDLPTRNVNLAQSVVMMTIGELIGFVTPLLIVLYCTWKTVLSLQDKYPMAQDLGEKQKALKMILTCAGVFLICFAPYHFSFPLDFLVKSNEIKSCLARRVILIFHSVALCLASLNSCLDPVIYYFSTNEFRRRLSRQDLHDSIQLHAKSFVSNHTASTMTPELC

Row | Fold decrease in Gs signaling activity [fold] | EC50 | SMILES
1 | 3.3 | 700 nM and 400 nM | CCC(=O)N1CCN(c2cc(N3CCC(C)CC3)c(F)cc2[N+](=O)[O-])CC1 [compound 8]
2 | 3.9 | 400 nM and 700 nM | CC1CCN(c2cc(N3CCN(C(=O)c4cccs4)CC3)c([N+](=O)[O-])cc2F)CC1 [compound 12]
3 | 3 | 1100 nM | Cc1ccc(S(=O)(=O)N2CCN(c3cc(N4CCC(C)CC4)c(F)cc3[N+](=O)[O-])CC2)cc1 [compound 14]
4 | 2.6 | 1700 nM | Cc1ccc(S(=O)(=O)N2CCN(c3cc(N4CCCCC4)c(F)cc3[N+](=O)[O-])CC2)cc1 [compound 15]
5 | 2.1 | 800 nM | CC(C)C(=O)N1CCN(c2cc(N3CCCCC3C)c(F)cc2[N+](=O)[O-])CC1 (stereo not shown) [compound 16]
6 | 2.0 | 3000 nM | CC1CCCCN1c1cc(N2CCN(C(=O)C(C)(C)C)CC2)c([N+](=O)[O-])cc1F (stereo not shown) [compound 17]
7 | 1.9 | 1000 nM | CCOC(=O)N1CCN(c2cc(N3CCCCC3C)c(F)cc2[N+](=O)[O-])CC1 (stereo not shown) [compound 18]
8 | 2.8 | 4400 nM | O=C1CCCC2=C1C(c1cccc(O)c1)C1=C(N2)c2ccccc2C1=O (stereo not shown) [compound 24]
9 | 4.2 | 4600 nM | O=C1CCCC2=C1C(c1ccccc1)C1=C(N2)c2ccccc2C1=O (stereo not shown) [compound 25]
10 | 1.7 | 3600 nM | COc1cc(C2C3=C(CCCC3=O)NC3=C2C(=O)c2ccccc23)ccc1O (stereo not shown) [compound 26]
11 | 6.2 | 800 nM and 500 nM | CCc1ccc(C2C3=C(CCCC3=O)NC3=C2C(=O)c2ccccc23)cc1 (stereo not shown) [compound 27]
12 | 1.9 | 3600 nM | COc1cccc(C2C3=C(CCCC3=O)NC3=C2C(=O)c2ccccc23)c1 (stereo not shown) [compound 28]
13 | 5.3 | 1200 nM | CC(C)c1ccc(C2C3=C(CCCC3=O)NC3=C2C(=O)c2ccccc23)cc1 (stereo not shown) [compound 29]
14 | 3.9 | 2500 nM | O=C1CCCC2=C1C(c1ccc(-c3ccccc3)cc1)C1=C(N2)c2ccccc2C1=O (stereo not shown) [compound 32]
15 | 8.4 | 2800 nM | Cc1nnc(-c2ccc(C3C4=C(CCCC4=O)NC4=C3C(=O)c3ccccc34)cc2)o1 (stereo not shown) [compound 34]
16 | 2.8 | 4300 nM | O=C1CCCC2=C1C(c1ccc(F)cc1)C1=C(N2)c2ccccc2C1=O (stereo not shown) [compound 35]

Row | SMILES | Fold decrease in Gs signaling activity [fold] | EC50
17 | CCOc1ccc(C2C3=C(CCCC3=O)NC3=C2C(=O)c2ccccc23)cc1OCC (stereo not shown) [compound 30] | 2.2 | 3800 nM
